Molecular target: T1, human PAD4 (Homo sapiens, UniProt Q9UM07)
T1 construct: human PAD4 (NM_012387), A2P663, was PCR amplified; His-SUMO (N, cleaved yes); made in house; host or cells: E. coli BL21(DE3)
Assay: In vitro PAD4 BAEE biochemical assay
Conditions: human PAD4, BAEE substrate; 5 nM PAD4, 2 mM calcium chloride, 3 mM BAEE; geometric mean of multiple experiments
How it was run: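 Tag-free recombinant hPAD4 (5 nM), 2 mM CaCl2, 3 mM BAEE, 50 mM MOPS pH 7.6, 2 mM DTT; 30 min compound preincubation, 2 h reaction, all 25 °C. EDTA quench; ammonia read via o-phthalaldehyde amine coupling, 1 h.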

T1 sequence (Q9UM07 2-663): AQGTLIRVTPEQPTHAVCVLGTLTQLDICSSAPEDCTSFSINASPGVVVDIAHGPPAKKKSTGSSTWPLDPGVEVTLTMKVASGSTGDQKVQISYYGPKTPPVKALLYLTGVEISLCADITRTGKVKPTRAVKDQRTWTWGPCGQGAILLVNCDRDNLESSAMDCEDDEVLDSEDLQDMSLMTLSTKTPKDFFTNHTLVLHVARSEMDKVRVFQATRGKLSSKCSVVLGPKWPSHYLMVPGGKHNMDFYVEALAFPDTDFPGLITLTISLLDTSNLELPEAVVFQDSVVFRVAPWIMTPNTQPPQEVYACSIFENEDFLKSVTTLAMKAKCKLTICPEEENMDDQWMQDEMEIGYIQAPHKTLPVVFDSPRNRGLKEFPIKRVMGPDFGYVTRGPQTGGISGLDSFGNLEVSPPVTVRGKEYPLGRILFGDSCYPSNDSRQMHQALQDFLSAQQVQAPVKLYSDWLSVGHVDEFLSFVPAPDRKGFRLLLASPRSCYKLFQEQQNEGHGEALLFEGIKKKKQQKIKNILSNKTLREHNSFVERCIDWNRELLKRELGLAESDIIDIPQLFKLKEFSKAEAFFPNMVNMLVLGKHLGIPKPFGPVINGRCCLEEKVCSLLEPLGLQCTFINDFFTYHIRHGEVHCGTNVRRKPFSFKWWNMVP

Going from `COc1cc(C(=O)N2[C@H]3CC[C@@H]2[C@H](N)C3)cc2nc(-c3cc4ccc([C@@H](C)NC(=O)c5cnn(C)c5)nc4n3CC3CC3)c(C)n12` [Example 116, ~{N}-[(1~{R})-1-[2-[7-[(1~{R},2~{R},4~{S})-2-amino-7-azabicyclo[2.2.1]heptane-7-carbonyl]-5-methoxy-3-methylimidazo [1,2-a]pyridin-2-yl]-1-(cyclopropylmethyl)pyrrolo [2,3-b]pyridin-6-yl]ethyl]-1-methylpyrazole-4-carboxamide] to `COc1cc(C(=O)N2[C@H]3CC[C@@H]2[C@H](N)C3)cc2nc(-c3cc4ccc([C@@H](C)NC(=O)c5cn(C)nn5)nc4n3CC3CC3)c(C)n12` [Example 1, ~{N}-[(1~{R})-1-[2-[7-[(1~{R},2~{R},4~{S})-2-amino-7-azabicyclo[2.2.1]heptane-7-carbonyl]-5-methoxy-3-methylimidazo [1,2-a]pyridin-2-yl]-1-(cyclopropylmethyl)pyrrolo [2,3-b]pyridin-6-yl]ethyl]-1-methyltriazole-4-carboxamide], the IC50 rises from 0.0348 µM to 0.0857 µM (2.5-fold).

First: CNC(=O)C1CC1c1c(-c2cc3ccc(N(C(F)F)S(C)(=O)=O)nc3n2CC2CC2)nc2cc(C(=O)N3CCC[C@@H](N)C3)ccn12 (stereo partly drawn) [Example 431, 2-[7-[(3~{R})-3-aminopiperidine-1-carbonyl]-2-[1-(cyclopropylmethyl)-6-[difluoromethyl (methylsulfonyl)amino]pyrrolo[2,3-b]pyridin-2-yl]imidazo[1,2-a]pyridin-3-yl]-~{N}-methylcyclopropane-1-carboxamide]
Second: COc1cc(C(=O)N2C[C@@H]3CC[C@H]2[C@H](N)C3)cc2nc(-c3cc4ccc(N(C(F)F)S(C)(=O)=O)nc4n3CC3CC3)c(C)n12 [Example 377, ~{N}-[2-[7-[(1~{R},4~{S}, 6~{R})-6-amino-2-azabicyclo[2.2.2]octane-2-carbonyl]-5-methoxy-3-methylimidazo[1,2-a]pyridin-2-yl]-1-(cyclopropylmethyl)pyrrolo [2,3-b]pyridin-6-yl]-~{N}-(difluoromethyl) methanesulfonamide]
The IC50 of the first is 9-fold lower: 2.03 µM for the first, 18.2 µM for the second. The first is the more potent here.

Going from `COc1cc(C(=O)N2CCC[C@@H](N)C2)cc2nc(-c3cc4ccc(-c5cccnc5C)nc4n3CC3CC3)c(C)n12` [Example 604, [(3~{R})-3-aminopiperidin-1-yl]-[2-[1-(cyclopropylmethyl)-6-(2-methylpyridin-3-yl)pyrrolo[2,3-b]pyridin-2-yl]-5-methoxy-3-methylimidazo[1,2-a]pyridin-7-yl]methanone] to `COc1cc(C(=O)N2[C@H]3CC[C@@H]2[C@H](N)C3)cc2nc(-c3cc4ccc([C@@H](C)NC(=O)c5ccnc(Cl)c5)nc4n3CC3CC3)c(C)n12` [Example 51], the IC50 falls from 0.427 µM to 0.0309 µM (14-fold). The second is the more potent here.

Compared with `COc1cc(C(=O)N2[C@H]3CC[C@@H]2[C@H](N)C3)cc2nc(-c3cc4ccc([C@@H](C)NC(=O)C5CCOCC5)nc4n3CC3CC3)c(C)n12` [Example 150, ~{N}-[(1~{R})-1-[2-[7-[(1~{R},2~{R},4~{S})-2-amino-7-azabicyclo[2.2.1]heptane-7-carbonyl]-5-methoxy-3-methylimidazo [1,2-a]pyridin-2-yl]-1-(cyclopropylmethyl)pyrrolo [2,3-b]pyridin-6-yl]ethyl] oxane-4-carboxamide], `COc1cc(C(=O)N2[C@H]3CC[C@@H]2[C@H](N)C3)cc2nc(-c3cc4ccc([C@@H](C)NC(=O)C(C)(C)C)nc4n3CC3CC3)c(C)n12` [Example 177, N—((R)-1-(2-(7-((1R,2R,4S)-2-amino-7-azabicyclo[2.2.1]heptane-7-carbonyl)-5-methoxy-3-methylimidazo[1,2-a]pyridin-2-yl)-1-(cyclopropylmethyl)-1H-pyrrolo[2,3-b]pyridin-6-yl)ethyl)pivalamide] is 1.9-fold higher in IC50: 0.041 µM for the first, 0.0763 µM for the second. The first is the more potent here.

Going from `COc1cc(C(=O)N2[C@H]3CC[C@@H]2[C@H](N)C3)cc2nc(-c3cc4ccc(N[C@@H](C)C(F)(F)F)nc4n3CC3CC3)c(C)n12` [Example 448, [(1~{R},2~{R},4~{S})-2-amino-7-azabicyclo [2.2.1]heptan-7-yl]-[2-[1-(cyclopropylmethyl)-6-[[(2~{S})-1,1,1-trifluoropropan-2-yl]amino]pyrrolo[2,3-b]pyridin-2-yl]-5-methoxy-3-methylimidazo[1,2-a]pyridin-7-yl]methanone] to `COc1cc(C(=O)N2[C@H]3CC[C@@H]2[C@H](N)C3)cc2nc(-c3cc4ccc(C(C)CC(N)=O)nc4n3CC3CC3)c(C)n12` (stereo partly drawn) [Example 520, 3-[2-[7-[(1~{R},2~{R}, 4~{S})-2-amino-7-azabicyclo[2.2.1]heptane-7-carbonyl]-5-methoxy-3-methylimidazo[1,2-a]pyridin-2-yl]-1-(cyclopropylmethyl)pyrrolo[2,3-b]pyridin-6-yl]butanamide], the IC50 falls from 6.71 µM to 0.0738 µM (91-fold).

Compared with `COc1cc(C(=O)N2[C@H]3CC[C@@H]2[C@H](N)C3)cc2nc(-c3cc4ccc([C@@H](C)NC(=O)c5cccnc5)nc4n3CC3CC3)c(C)n12` [Example 120, ~{N}-[(1~{R})-1-[2-[7-[(1~{R},2~{R},4~{S})-2-amino-7-azabicyclo[2.2.1]heptane-7-carbonyl]-5-methoxy-3-methylimidazo [1,2-a]pyridin-2-yl]-1-(cyclopropylmethyl)pyrrolo [2,3-b]pyridin-6-yl]ethyl]pyridine-3-carboxamide], `COc1cc(C(=O)N2[C@H]3CC[C@@H]2[C@H](N)C3)cc2nc(-c3cc4ccc([C@@H](C)NC(=O)c5cnc(C6CC6)o5)nc4n3CC3CC3)c(C)n12` [Example 79, ~{N}-[(1~{R})-1-[2-[7-[(1~{R},2~{R},4~{S})-2-amino-7-azabicyclo[2.2.1]heptane-7-carbonyl]-5-methoxy-3-methylimidazo [1,2-a]pyridin-2-yl]-1-(cyclopropylmethyl)pyrrolo [2,3-b]pyridin-6-yl]ethyl]-2-cyclopropyl-1,3-oxazole-5-carboxamide] is 1.9-fold higher in IC50: 0.0301 µM for the first, 0.056 µM for the second.

`COc1cc(C(=O)N[C@@H]2CC[C@H]3CC[C@@H]2N3)cc2nc(-c3cc4ccc(N(C(F)F)S(C)(=O)=O)nc4n3CC3CC3)c(C)n12` [Example 298, ~{N}-[(1~{S},2~{R}, 5~{R})-8-azabicyclo [3.2.1]octan-2-yl]-2-[1-(cyclopropylmethyl)-6-[difluoromethyl (methylsulfonyl)amino]pyrrolo[2,3-b]pyridin-2-yl]-5-methoxy-3-methylimidazo[1,2-a]pyridine-7-carboxamide] and `COc1cc(C(=O)N[C@H]2CNC[C@@H](F)C2)cc2nc(-c3cc4ccc(N(C(F)F)S(C)(=O)=O)nc4n3CC3CC3)c(C)n12` [Example 307, 2-[1-(cyclopropylmethyl)-6-[difluoromethyl (methylsulfonyl)amino]pyrrolo[2,3-b]pyridin-2-yl]-~{N}-[(3~{R},5~{S})-5-fluoropiperidin-3-yl]-5-methoxy-3-methylimidazo [1,2-a]pyridine-7-carboxamide] are within 1.5-fold of each other in IC50: 30 µM for the first, 25.6 µM for the second.

Molecule `CCOC(=O)N(C)c1ccc2cc(-c3nc4cc(C(=O)N5[C@H]6CC[C@@H]5[C@H](N)C6)cc(OC)n4c3C)n(CC3CC3)c2n1` [Example 466, ethyl~{N}-[2-[7-[(1~{R},2~{R},4~{S})-2-amino-7-azabicyclo[2.2.1]heptane-7-carbonyl]-5-methoxy-3-methylimidazo [1,2-a]pyridin-2-yl]-1-(cyclopropylmethyl)pyrrolo [2,3-b]pyridin-6-yl]-~{N}-methylcarbamate] has an IC50 of 0.143 µM.

Source: patent US12240862B2, “Inhibitors of peptidylarginine deiminases” (Gilead Sciences, Inc., priority 2020, dated 2025)
